The results in this text go back to patent publication US20140045823A1 (Neurocrine Biosciences, Inc., priority 2012, published 2014).

As usually defined, the EC50 is the concentration at which the effect is half-maximal. The low end stands for higher potency in that assay, the high end for lower potency in that assay.

For the assay, the target named is T1, human GPR119 (Homo sapiens, UniProt Q8TDV5).
T1 construct: expression vector for human GPR119 cDNA (Acc. No. NP_848566); expressed in transfected cells; Min-6/hGPR119
T1 sequence (Q8TDV5 1-335): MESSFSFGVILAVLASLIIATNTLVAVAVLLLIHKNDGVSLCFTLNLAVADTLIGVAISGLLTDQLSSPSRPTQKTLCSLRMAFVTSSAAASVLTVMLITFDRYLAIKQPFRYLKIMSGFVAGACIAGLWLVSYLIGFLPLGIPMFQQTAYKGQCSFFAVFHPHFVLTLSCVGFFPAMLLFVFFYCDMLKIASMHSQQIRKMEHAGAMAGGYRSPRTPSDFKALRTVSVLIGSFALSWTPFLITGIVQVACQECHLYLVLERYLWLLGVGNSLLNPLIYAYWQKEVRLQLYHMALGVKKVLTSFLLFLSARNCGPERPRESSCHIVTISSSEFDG
Kind of assay: AlphaScreen cAMP assay in MIN6 cells stably transfected with human GPR119. Type of assay: cell-based. The note with it: Min-6/hGPR119 cells, 45 min at room temperature. The method in brief:
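MIN6 cells stably expressing human GPR119, seeded 10000/well and grown 24 h, were exposed to compound in pH 7.4 buffer with 0.5 mM IBMX, 0.1% BSA and 1% DMSO for 45 min at room temperature. Intracellular cAMP then measured by AlphaScreen.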
For orientation: Bead proximity is the source of the signal in Alpha formats.
Consider `CC(C)(C)OC(=O)N1CCC(N(C(=O)c2cnc(-c3ccc(C(=O)N4CCCC(O)C4)cc3)nc2)C2CC2)CC1` (stereo not drawn) [Example 190, 4-(Cyclopropyl-{2-[4-(3-hydroxy-piperidine-1-carbonyl)-phenyl]-pyrimidine-5-carbonyl}-amino)-piperidine-1-carboxylic acid tert-buyl ester], for which the EC50 turned out to be 820 nM.

With `CC(C)(C)OC(=O)N1CCC(N(C(=O)c2cnc(-c3ccc(CC(=O)NCCOC(F)(F)F)cc3)nc2)C2CC2)CC1` [Example 191, 4-[Cyclopropyl-(2-{4-[(2-trifluoromethoxy-ethylcarbamoyl)-methyl]-phenyl}-pyrimidine-5-carbonyl)-amino]-piperidine-1-carboxylic acid tert-butyl ester], the EC50 came to 420 nM.

Regarding `CC(C)(C)OC(=O)N1CCC(N(C(=O)c2cnc(-c3ccc(CC(=O)N4CCCOCC4)cc3)nc2)C2CC2)CC1` [Example 192, 4-(Cyclopropyl-{2-[4-(2-[1,4]oxazepan-4-yl-2-oxo-ethyl)-phenyl]-pyrimidine-5-carbonyl}-amino)-piperidine-1-carboxylic acid tert-butyl ester], the EC50 worked out at 421 nM.

Compound `CN(CC1CCOCC1)C(=O)c1ccc(-c2ncc(C(=O)N(C3CC3)C3CCN(C(=O)OC(C)(C)C)CC3)cn2)cc1` [Example 193, 4-[Cyclopropyl-(2-{4-[methyl-(tetrahydro-pyran-4-ylmethyl)-carbamoyl]-phenyl}-pyrimidine-5-carbonyl)-amino]-piperidine-1-carboxylic acid tert-butyl ester] returned an EC50 of 300 nM.

Turning to `CO[C@@H]1CCN(C(=O)Cc2ccc(-c3ncc(C(=O)N(C4CC4)C4CCN(C(=O)OC(C)(C)C)CC4)cn3)cc2)C1` [Example 194, 4-[Cyclopropyl-(2-{4-[2-(3-methoxy-pyrrolidin-1-yl)-2-oxo-ethyl]-phenyl}-pyrimidine-5-carbonyl)-amino]-piperidine-1-carboxylic acid tert-butyl ester], the EC50 is 325 nM.

As for `COCCN(C)C(=O)Cc1ccc(-c2ncc(C(=O)N(C3CC3)C3CCN(C(=O)OC(C)(C)C)CC3)cn2)cc1` [Example 195, 4-{Cyclopropyl-[2-(4-{[(2-methoxy-ethyl)-methyl-carbamoyl]-methyl}-phenyl)-pyrimidine-5-carbonyl]-amino}-piperidine-1-carboxylic acid tert-butyl ester], a half-maximal response (EC50) required 486 nM.

In turn, `COCCN(C)C(=O)c1ccc(-c2ncc(C(=O)N(C3CC3)C3CCN(C(=O)OC(C)(C)C)CC3)cn2)cc1` [Example 196, 4-[Cyclopropyl-(2-{4-[(2-methoxy-ethyl)-methyl-carbamoyl]-phenyl}-pyrimidine-5-carbonyl)-amino]-piperidine-1-carboxylic acid tert-butyl ester] showed an EC50 of 215 nM.

As to `CN(Cc1cccnc1)C(=O)c1ccc(-c2ncc(C(=O)N(C3CC3)C3CCN(C(=O)OC(C)(C)C)CC3)cn2)cc1` [Example 197, 4-(Cyclopropyl-{2-[4-(methyl-pyridin-3-ylmethyl-carbamoyl)-phenyl]-pyrimidine-5-carbonyl}-amino)-piperidine-1-carboxylic acid tert-butyl ester], the EC50 turned out to be 169 nM.

`COCC(C)NC(=O)Cc1ccc(-c2ncc(C(=O)N(C3CC3)C3CCN(C(=O)OC(C)(C)C)CC3)cn2)cc1` (stereo not drawn) [Example 198, 4-[Cyclopropyl-(2-{4-[(2-methoxy-1-methyl-ethylcarbamoyl)-methyl]-phenyl}-pyrimidine-5-carbonyl)-amino]-piperidine-1-carboxylic acid tert-butyl ester] registered an EC50 of 715 nM.

The compound `Cc1cnc(CNC(=O)Cc2ccc(-c3ncc(C(=O)N(C4CC4)C4CCN(C(=O)OC(C)(C)C)CC4)cn3)cc2)s1` [Example 199, 4-{Cyclopropyl-[2-(4-{[(5-methyl-thiazol-2-ylmethyl)-carbamoyl]-methyl}-phenyl)-pyrimidine-5-carbonyl]-amino}-piperidine-1-carboxylic acid tert-buyl ester] gave an EC50 of 395 nM.

Consider `CN(C)C(=O)CNC(=O)c1ccc(-c2ncc(C(=O)N(C3CC3)C3CCN(C(=O)OC(C)(C)C)CC3)cn2)cc1` [Example 200, 4-(Cyclopropyl-{2-[4-(dimethylcarbamoylmethyl-carbamoyl)-phenyl]-pyrimidine-5-carbonyl}-amino)-piperidine-1-carboxylic acid tert-butyl ester], for which the EC50 is 449 nM.

In turn, `Cc1nc(CNC(=O)c2ccc(-c3ncc(C(=O)N(C4CC4)C4CCN(C(=O)OC(C)(C)C)CC4)cn3)cc2)cs1` [Example 201, 4-[Cyclopropyl-(2-{4-[(2-methyl-thiazol-4-ylmethyl)-carbamoyl]-phenyl}-pyrimidine-5-carbonyl)-amino]-piperidine-1-carboxylic acid tert-butyl ester] came in with an EC50 of 180 nM.

For the compound `CN(CC1CCOC1)C(=O)c1ccc(-c2ncc(C(=O)N(C3CC3)C3CCN(C(=O)OC(C)(C)C)CC3)cn2)cc1` (stereo not drawn) [Example 202, 4-[Cyclopropyl-(2-{4-[methyl-(tetrahydro-furan-3-ylmethyl)-carbamoyl]-phenyl}-pyrimidine-5-carbonyl)-amino]-piperidine-1-carboxylic acid tert-butyl ester], the EC50 is 171 nM.

Turning to `COC[C@H]1CCCN1C(=O)c1ccc(-c2ncc(C(=O)N(C3CC3)C3CCN(C(=O)OC(C)(C)C)CC3)cn2)cc1` [Example 203, 4-(Cyclopropyl-{2-[4-(2-methoxymethyl-pyrrolidine-1-carbonyl)-phenyl]-pyrimidine-5-carbonyl}-amino)-piperidine-1-carboxylic acid tert-butyl ester], the EC50 was 295 nM.

As for `COC[C@@H]1CCCN1C(=O)c1ccc(-c2ncc(C(=O)N(C3CC3)C3CCN(C(=O)OC(C)(C)C)CC3)cn2)cc1` [Example 204, 4-(Cyclopropyl-{2-[4-(2-methoxymethyl-pyrrolidine-1-carbonyl)-phenyl]-pyrimidine-5-carbonyl}-amino)-piperidine-1-carboxylic acid tert-butyl ester], a half-maximal effect (EC50) was put at 302 nM.

Take `CN(C(=O)c1ccc(-c2ncc(C(=O)N(C3CC3)C3CCN(C(=O)OC(C)(C)C)CC3)cn2)cc1)C1CCOCC1` [Example 205, 4-[Cyclopropyl-(2-{4-[methyl-(tetrahydro-pyran-4-yl)-carbamoyl]-phenyl}-pyrimidine-5-carbonyl)-amino]-piperidine-1-carboxylic acid tert-butyl ester]: the EC50 is 347 nM.

The compound `CN(CC1(C)COC1)C(=O)c1ccc(-c2ncc(C(=O)N(C3CC3)C3CCN(C(=O)OC(C)(C)C)CC3)cn2)cc1` [Example 206, 4-[Cyclopropyl-(2-{4-[methyl-(3-methyl-oxetan-3-ylmethyl)-carbamoyl]-phenyl}-pyrimidine-5-carbonyl)-amino]-piperidine-1-carboxylic acid tert-butyl ester] registered an EC50 of 312 nM.

For the compound `CC(C)(C)OC(=O)N1CCC(N(C(=O)c2cnc(-c3ccc(C(=O)NCCn4ccc(C5CC5)n4)cc3)nc2)C2CC2)CC1` [Example 207, 4-[Cyclopropyl-(2-{4-[2-(3-cyclopropyl-pyrazol-1-yl)-ethylcarbamoyl]-phenyl}-pyrimidine-5-carbonyl)-amino]-piperidine-1-carboxylic acid tert-butyl ester], the concentration for a half-maximal effect (EC50) came out at 369 nM.
